The values that follow come from patent US7135466B2 (Kirin Beer Kabushiki Kaisha, priority 1999, dated 2006).

In experiment [1] the target is T1, PDGF-Ra (Homo sapiens, UniProt P16234).
T1 construct: host or cells: G-292 human osteosarcoma cells
The experiment in a line: Inhibitory activity against PDGF-Ra phosphorylation by PDGF-AA stimulation using G292. The class given is cell-based. To be noted: for pIC50: > means inhibition at indicated concentration not more than 50%, < and << not less than 50%, read-out: PDGF (E) IC50; for inhibition at 0.1 µM: G292, figure within parentheses in >100( ), at 100 nM, read-out: PDGF (E) inhibition (%) at 100 nM. Summed up: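 Read-out: A450 from a sandwich ELISA (PY-20 capture, anti-PDGF-Ra detection, peroxidase colour) of lysates from G-292 cells given compound for 1 hr at 37 °C before a 5 min challenge with PDGF-AA at 50 ng/ml.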

In experiment [2] the target is T2, c-kit (Homo sapiens, UniProt P10721).
T2 construct: MO7e (human megakaryocytic leukemia cell line) which had been arrested for 20 hr; endogenous in cells; host or cells: MO7e human megakaryocytic leukemia cell line
T2 sequence (P10721 26-976): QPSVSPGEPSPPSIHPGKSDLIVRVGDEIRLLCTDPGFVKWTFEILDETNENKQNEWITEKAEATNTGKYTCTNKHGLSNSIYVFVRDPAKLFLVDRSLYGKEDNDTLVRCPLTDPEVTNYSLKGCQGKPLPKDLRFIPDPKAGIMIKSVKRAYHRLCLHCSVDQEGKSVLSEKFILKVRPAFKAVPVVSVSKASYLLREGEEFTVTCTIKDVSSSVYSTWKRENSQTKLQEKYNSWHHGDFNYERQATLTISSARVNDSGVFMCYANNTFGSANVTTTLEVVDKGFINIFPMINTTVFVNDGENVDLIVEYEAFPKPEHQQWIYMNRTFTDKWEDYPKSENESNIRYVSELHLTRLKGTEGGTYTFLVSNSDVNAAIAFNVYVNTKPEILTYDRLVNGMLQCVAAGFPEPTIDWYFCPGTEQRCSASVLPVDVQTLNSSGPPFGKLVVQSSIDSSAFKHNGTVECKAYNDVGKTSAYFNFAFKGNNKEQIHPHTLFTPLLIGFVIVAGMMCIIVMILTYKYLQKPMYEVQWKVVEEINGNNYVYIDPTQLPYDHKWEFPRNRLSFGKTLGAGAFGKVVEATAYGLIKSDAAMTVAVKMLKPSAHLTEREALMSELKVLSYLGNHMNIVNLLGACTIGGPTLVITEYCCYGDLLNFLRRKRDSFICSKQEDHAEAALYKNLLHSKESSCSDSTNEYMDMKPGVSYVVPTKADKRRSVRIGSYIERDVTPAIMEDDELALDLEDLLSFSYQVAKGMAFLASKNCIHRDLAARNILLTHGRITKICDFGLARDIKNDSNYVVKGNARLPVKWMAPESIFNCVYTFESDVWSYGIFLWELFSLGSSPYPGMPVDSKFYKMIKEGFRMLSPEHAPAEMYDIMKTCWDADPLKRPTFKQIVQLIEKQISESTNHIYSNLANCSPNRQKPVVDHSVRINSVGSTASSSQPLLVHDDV
Briefly: Inhibitory activity against c-kit autophosphorylation (MO7e cells, h-SCF). As to conditions: for inhibition at 1 µM: Mo7e, figure within parentheses in −( ) or >1000( ), at 1000 nM; for pIC50: MO7e cells, 50 ng/ml h-SCF, read-out: c-kit IC50. The class given is cell-based. In short, it runs like this:
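MO7e cells, arrested for 20 hr, were pretreated with test compound in DMSO for 1 hr and then stimulated with 50 ng/ml h-SCF for 5 min before lysis. Lysates were captured on immobilized anti-phosphotyrosine PY-20, probed with anti-c-kit antibody and HRP anti-rabbit IgG, and read colorimetrically at 450 nm.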

pIC50: −log10 of the molar value. Some results are limits rather than exact numbers.

T1 sequence (P16234 24-1089): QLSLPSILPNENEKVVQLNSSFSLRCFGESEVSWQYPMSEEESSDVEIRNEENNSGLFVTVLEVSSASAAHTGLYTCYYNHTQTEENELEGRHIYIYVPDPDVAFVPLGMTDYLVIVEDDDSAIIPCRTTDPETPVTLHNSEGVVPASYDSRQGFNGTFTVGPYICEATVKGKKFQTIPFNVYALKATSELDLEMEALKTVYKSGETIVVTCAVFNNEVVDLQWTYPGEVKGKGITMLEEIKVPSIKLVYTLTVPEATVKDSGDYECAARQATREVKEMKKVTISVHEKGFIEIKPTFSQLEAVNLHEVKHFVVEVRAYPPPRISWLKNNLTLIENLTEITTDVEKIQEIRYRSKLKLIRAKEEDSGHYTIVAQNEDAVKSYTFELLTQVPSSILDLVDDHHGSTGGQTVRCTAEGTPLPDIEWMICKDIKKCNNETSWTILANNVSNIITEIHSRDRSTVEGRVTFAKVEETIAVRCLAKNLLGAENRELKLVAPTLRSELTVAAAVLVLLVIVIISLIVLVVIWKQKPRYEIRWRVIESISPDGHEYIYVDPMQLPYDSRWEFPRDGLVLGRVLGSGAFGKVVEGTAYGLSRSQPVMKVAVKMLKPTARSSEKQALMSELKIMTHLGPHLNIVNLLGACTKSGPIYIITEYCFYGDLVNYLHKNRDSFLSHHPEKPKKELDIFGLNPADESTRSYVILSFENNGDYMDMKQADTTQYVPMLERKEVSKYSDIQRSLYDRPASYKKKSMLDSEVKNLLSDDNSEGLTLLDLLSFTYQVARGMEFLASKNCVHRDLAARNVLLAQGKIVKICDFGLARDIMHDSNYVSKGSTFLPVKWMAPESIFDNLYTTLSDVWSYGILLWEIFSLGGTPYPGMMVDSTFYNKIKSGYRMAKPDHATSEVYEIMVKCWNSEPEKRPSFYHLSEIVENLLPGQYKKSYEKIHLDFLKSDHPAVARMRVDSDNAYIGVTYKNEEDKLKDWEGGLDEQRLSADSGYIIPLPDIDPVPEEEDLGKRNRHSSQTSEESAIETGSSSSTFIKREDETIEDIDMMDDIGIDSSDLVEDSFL

Usually pIC50 stands for −log10 of the IC50, conventionally taken in molar units. What is called inhibition is the share of the control response that was lost under treatment. On to `CCCCN(CCCC)CCNC(=O)Nc1ccc(Oc2ncnc3cc(OC)c(OC)cc23)cc1` [Example 685, N-[2-(Dibutylamino)ethyl]-N′-{4-[(6,7-dimethoxy-4-quinazolinyl)oxy]phenyl}urea], for which the pIC50 in experiment [1] was 7.66. For the same molecule, in experiment [2], the inhibition at 1 µM was 41%.

Consider `CCCCN(CCCC)CCNC(=O)Nc1ccc(Oc2ncnc3cc(OC)c(OC)cc23)cc1Cl` [Example 686, N-{2-Chloro-4-[(6,7-dimethoxy-4-quinazolinyl)oxy]phenyl}-N′-[2-(dibutylamino)ethyl]urea], for which the negative logarithm of the IC50 (pIC50) in experiment [1] is 7.42. Moreover, the inhibition at 1 µM in experiment [2] turned out to be 19%.

As for `CCCCN(CCCC)CCNC(=O)Nc1ccc(Oc2ncnc3cc(OC)c(OC)cc23)cc1OC` [Example 688, N-[2-(Dibutylamino)ethyl]-N′-{4-[(6,7-dimethoxy-4-quinazolinyl)oxy]-2-methoxyphenyl}urea], the pIC50 in experiment [1] is 7.47. Further, the inhibition at 1 µM in experiment [2] is 19%.

For the molecule `CCCCN(CCCC)CCNC(=O)Nc1ccc(Oc2ccnc3cc(OC)c(OC)cc23)cc1OC` [Example 689, N-[2-(Dibutylamino)ethyl]-N′-{4-[(6,7-dimethoxy-4-quinolyl)oxy]-2-methoxyphenyl}urea], in experiment [1], the pIC50 is < 7.00 and the inhibition at 0.1 µM amounted to 42%. Also, in experiment [2], the pIC50 was 6.24.

Consider `COc1cc2ncnc(Oc3ccc(NC(=O)N4CCN(Cc5ccccc5)CC4)cc3)c2cc1OC` [Example 690, N1-{4-[(6,7-Dimethoxy-4-quinazolinyl)oxy]phenyl}-4-benzyl-1-piperazinecarboxamide], for which, in experiment [1], the pIC50 is < 7.00 and the inhibition at 0.1 µM was 10%. Also, the inhibition at 1 µM in experiment [2] turned out to be 11%.

As to `COc1cc2ncnc(Oc3ccc(NC(=O)N4CCN(c5ccccc5)CC4)cc3)c2cc1OC` [Example 691, N1-{4-[(6,7-Dimethoxy-4-quinazolinyl)oxy]phenyl}-4-phenyl-1-piperazinecarboxamide], in experiment [1], the negative-log IC50 (pIC50) was < 7.00 and the inhibition at 0.1 µM was 10%. Further, the inhibition at 1 µM in experiment [2] stood at 18%.

For `COc1cc2nccc(Oc3ccc(NC(=S)NC(=O)c4ccc(Br)s4)c(C)c3)c2cc1OC` [Example 692, N-[(5-Bromo-2-thienyl)carbonyl]-N′-{4-[(6,7-dimethoxy-4-quinolyl)oxy]-2-methylphenyl}thiourea], in experiment [1], the pIC50 was < 7.00 and the inhibition at 0.1 µM amounted to 35%. Further, in experiment [2], the pIC50 is < 6.00 and the inhibition at 1 µM is 20%.

Regarding `COc1cc2nccc(Oc3ccc(NC(=S)NC(=O)c4ccc(Br)s4)cc3Cl)c2cc1OC` [Example 693, N-[(5-Bromo-2-thienyl)carbonyl]-N′-{3-chloro-4-[(6,7-dimethoxy-4-quinolyl)oxy]phenyl}thiourea], the pIC50 in experiment [1] is 7.25. In addition, in experiment [2], the pIC50 was < 6.00 and the inhibition at 1 µM was 46%.

Consider `COc1cc2nccc(Oc3ccc(NC(=S)NC(=O)c4ccc(Cl)s4)c(C)c3)c2cc1OC` [Example 694, N-[(5-Chloro-2-thienyl)carbonyl]-N′-{4[(6,7-dimethoxy-4-quinolyl)oxy]-2-methylphenyl}thiourea], for which, in experiment [1], the pIC50 is < 7.00 and the inhibition at 0.1 µM amounted to 12%. Further, the inhibition at 1 µM in experiment [2] was 37%.

`COc1cc2nccc(Oc3ccc(NC(=S)NC(=O)c4ccc(Cl)s4)cc3Cl)c2cc1OC` [Example 695, N-{3-Chloro-4-[(6,7-dimethoxy-4-quinolyl)oxy]phenyl}-N′-[(5-chloro-2-thienyl)carbonyl]thiourea]: in experiment [1], the pIC50 was < 7.00 and the inhibition at 0.1 µM was 10%. The inhibition at 1 µM in experiment [2] came out at 37%.

On to `COc1cc2nccc(Oc3ccc(NC(=S)NC(=O)CCSC)c(C)c3)c2cc1OC` [Example 696, N-{4-[(6,7-Dimethoxy-4-quinolyl)oxy]-2-methylphenyl}-N′-[3-(methylthio)propanoyl]-thiourea], for which, in experiment [1], the pIC50 is < 7.00 and the inhibition at 0.1 µM turned out to be 37%. Besides, in experiment [2], the inhibition at 1 µM worked out at 35%.

Take `COc1cc2nccc(Oc3ccc(NC(=S)NC(=O)CCSC)cc3Cl)c2cc1OC` [Example 697, N-{3-Chloro-4-[(6,7-dimethoxy-4-quinolyl)oxy]phenyl}-N′-[3-(methylthio)propanoyl]thiourea]: the pIC50 is > 8.00 in experiment [1] and 6.68 in experiment [2].

For `COc1cc2nccc(Oc3ccc(NC(=S)NC(=O)c4cc(C)oc4C)c(C)c3)c2cc1OC` [Example 698, N-{4-[(6,7-Dimethoxy-4-quinolyl)oxy]-2-methylphenyl}-N′-[(2,5-dimethyl-3-furyl)carbonyl]thiourea], in experiment [1], the pIC50 was < 7.00 and the inhibition at 0.1 µM came out at 34%. The inhibition at 1 µM in experiment [2] was 29%.

As to `COc1cc2nccc(Oc3ccc(NC(=S)NC(=O)c4cc(C)oc4C)cc3Cl)c2cc1OC` [Example 699, N-{3-Chloro-4-[(6,7-dimethoxy-4-quinolyl)oxy]phenyl}-N′-[(2,5-dimethyl-3-furyl)carbonyl]thiourea], the pIC50 in experiment [1] was 7.89. In addition, the inhibition at 1 µM in experiment [2] came to 29%.

Regarding `COc1cc2nccc(Oc3ccc(NC(=S)NC(=O)Cc4cccs4)c(C)c3)c2cc1OC` [Example 700, N-{4-[(6,7-Dimethoxy-4-quinolyl)oxy]-2-methylphenyl}-N′-[2-(2-thienyl)acetyl]thiourea], in experiment [1], the pIC50 is < 7.00 and the inhibition at 0.1 µM was found to be 30%. Also, the inhibition at 1 µM in experiment [2] came out at 0%.

For `COc1cc2nccc(Oc3ccc(NC(=S)NC(=O)Cc4cccs4)cc3Cl)c2cc1OC` [Example 701, N-{3-Chloro-4-[(6,7-dimethoxy-4-quinolyl)oxy]phenyl}-N′-[2-(2-thienyl)acetyl]thiourea], the pIC50 was > 8.00 in experiment [1] and 6.34 in experiment [2].

As for `COc1cc2nccc(Oc3ccc(NC(=S)NC(=O)Cc4ccccc4C)cc3Cl)c2cc1OC` [Example 702, N-{3-Chloro-4-[(6,7-dimethoxy-4-quinolyl)oxy]phenyl}-N′-[2-(2-methylphenyl)acetyl]thiourea], the figures for the pIC50 in experiment [1] and in experiment [2] were > 8.00 and 6.31, respectively.

For the molecule `COc1cc2ncnc(Oc3ccc(NC(=S)NC(=O)Cc4ccccc4C)cc3)c2cc1OC` [Example 703, N-{4-[(6,7-Dimethoxy-4-quinazolinyl)oxy]phenyl}-N′-[2-(2-methylphenyl)acetyl]thiourea], the negative logarithm of the IC50 (pIC50) in experiment [1] was > 8.00; in experiment [2] it was 6.43.

With `COc1cc2nccc(Oc3ccc(NC(=S)NC(=O)CC4CCCCC4)cc3Cl)c2cc1OC` [Example 704, N-{3-Chloro-4-[(6,7-dimethoxy-4-quinolyl)oxy]phenyl}-N′-(2-cyclohexylacetyl)thiourea], the negative-log IC50 (pIC50) in experiment [1] is 7.80; in experiment [2], 6.75.

Consider `COc1cc2ncnc(Oc3ccc(NC(=S)NC(=O)CC4CCCCC4)cc3)c2cc1OC` [Example 705, N-(2-Cyclohexylacetyl)-N′-{4-[(6,7-dimethoxy-4-quinazolinyl)oxy]phenyl}thiourea], for which the values for the pIC50 in experiment [1] and in experiment [2] were > 8.00 and 6.83, respectively.

Regarding `COc1cc2nccc(Oc3ccc(NC(=S)NCc4ccccc4)cc3Cl)c2cc1OC` [Example 706, N-Benzyl-N′-{3-chloro-4-[(6,7-dimethoxy-4-quinolyl)oxy]phenyl}thiourea], the pIC50 is > 8.00 in experiment [1] and 6.64 in experiment [2].

On to `COc1cc2ncnc(Oc3ccc(NC(=S)NCc4ccccc4)cc3)c2cc1OC` [Example 707, N-Benzyl-N′-{4-[(6,7-dimethoxy-4-quinazolinyl)oxy]phenyl}thiourea], for which the pIC50 in experiment [1] was 7.77; in experiment [2] it was 6.68.

For `COc1cc2nccc(Oc3ccc(NC(=S)NC(=O)Cc4cccc5ccccc45)cc3Cl)c2cc1OC` [Example 708, N-{3-Chloro-4-[(6,7-dimethoxy-4-quinolyl)oxy]phenyl}-N′-[2-(1-naphthyl)acetyl]thiourea], the pIC50 in experiment [1] was 7.29; in experiment [2], 6.46.

For `COc1cc2ncnc(Oc3ccc(NC(=S)NC(=O)Cc4cccc5ccccc45)cc3)c2cc1OC` [Example 709, N-{4-[(6,7-Dimethoxy-4-quinazolinyl)oxy]phenyl}-N′-[2-(1-naphthyl)acetyl]thiourea], the pIC50 in experiment [1] is 7.72. Further, in experiment [2], the inhibition at 1 µM came out at 19%.

With `COc1cc2nccc(Oc3ccc(NC(=S)NC(=O)Cc4ccc5ccccc5c4)cc3Cl)c2cc1OC` [Example 710, N-{3-Chloro-4-[(6,7-dimethoxy-4-quinolyl)oxy]phenyl}-N′-[2-(2-naphthyl)acetyl]thiourea], in experiment [1], the pIC50 is < 7.00 and the inhibition at 0.1 µM is 33%. Further, the inhibition at 1 µM in experiment [2] was 30%.

Take `COc1cc2ncnc(Oc3ccc(NC(=S)NC(=O)Cc4ccc5ccccc5c4)cc3)c2cc1OC` [Example 711, N-{4-[(6,7-Dimethoxy-4-quinazolinyl)oxy]phenyl}-N′-[2-(2-naphthyl)acetyl]thiourea]: in experiment [1], the pIC50 was < 7.00 and the inhibition at 0.1 µM came out at 34%. In addition, the inhibition at 1 µM in experiment [2] amounted to 17%.

Consider `COc1ccc(CCC(=O)NC(=S)Nc2ccc(Oc3ncnc4cc(OC)c(OC)cc34)cc2)cc1OC` [Example 713, N-[3-(3,4-Dimethoxyphenyl)propanoyl]-N′-{4-[(6,7-dimethoxy-4-quinazolinyl)oxy]phenyl}thiourea], for which the pIC50 in experiment [1] was 7.17; in experiment [2] it was 7.05.

As to `COc1cc2nccc(Oc3ccc(NC(=S)NC(=O)COc4ccccc4Cl)cc3Cl)c2cc1OC` [Example 714, N-{3-Chloro-4-[(6,7-dimethoxy-4-quinolyl)oxy]phenyl}-N′-[2-(2-chlorophenoxy)acetyl]thiourea], the pIC50 in experiment [1] was 7.80; in experiment [2] it was 6.61.
